Data as given in US10717762B2, “Abiraterone derivative and formulations thereof” (Zhuhai Beihai Biotech Co., Ltd., priority 2016, dated 2020).
Where two headings read alike, the source gives them in different places.

Assays:
[1] = Solubility in water (description); type: physicochemical; settings: ABOA, white to off-white solid
[2] = product insert (Zytiga Full Prescribing Information, Section 11); cited from earlier work
[3] = cited from earlier work
CYP3A4 liver enzyme = CYP3A4 liver enzyme (Homo sapiens, UniProt P08684); settings: Zytiga Full Prescribing Information, Section 7.2; cited from earlier work
Sequence of CYP3A4 liver enzyme (P08684 whole entry): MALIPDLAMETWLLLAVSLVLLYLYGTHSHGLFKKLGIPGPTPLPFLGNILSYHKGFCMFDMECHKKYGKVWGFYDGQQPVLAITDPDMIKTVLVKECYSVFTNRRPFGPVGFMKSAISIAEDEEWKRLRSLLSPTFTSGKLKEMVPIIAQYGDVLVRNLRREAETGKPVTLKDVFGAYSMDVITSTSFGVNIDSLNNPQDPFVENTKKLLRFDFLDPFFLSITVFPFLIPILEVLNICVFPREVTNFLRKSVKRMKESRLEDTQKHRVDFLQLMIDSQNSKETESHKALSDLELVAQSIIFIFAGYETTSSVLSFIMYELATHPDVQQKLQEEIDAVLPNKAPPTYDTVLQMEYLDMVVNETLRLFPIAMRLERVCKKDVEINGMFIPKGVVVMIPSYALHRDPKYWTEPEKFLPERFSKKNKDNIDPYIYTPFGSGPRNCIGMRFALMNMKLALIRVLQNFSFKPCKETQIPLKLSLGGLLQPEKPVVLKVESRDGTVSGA

Row | Structure (SMILES) | solubility in water [1] | solubility in water [2] | food-effect ([3]; depending on fat content of the meal) | administered drug excreted ([3]; oral, low bioavailability from poor absorption) | CYP3A4 substrate (CYP3A4 liver enzyme)
1 | C[C@]12CC[C@H](OC(=O)C(=O)O)CC1=CC[C@@H]1[C@@H]2CC[C@]2(C)C(c3cccnc3)=CC[C@@H]12 [ABOA, 2-(((3S,8R,9S,10R,13S,14S)-10,13-dimethyl-17-(pyridin-3-yl)-2,3,4,7,8,9,10,11,12,13,14,15-dodecahydro-1H-cyclopenta[a]phenanthren-3-yl)oxy)-2-oxoacetic acid] | practically insoluble in water | – | – | – | –
2 | CC(=O)O[C@H]1CC[C@@]2(C)C(=CC[C@@H]3[C@@H]2CC[C@]2(C)C(c4cccnc4)=CC[C@@H]32)C1 [abiraterone acetate] | – | practically insoluble in water | five- to ten-fold | 77% | substrate of the CYP3A4 liver enzyme
